# pIC50: −log10 of the molar value.
# Experiments:
# [1] = Efflux ratio of apparent permeability across basolateral to apical membrane over apical to basolateral membrane in human Caco2 cells; type: ADME, cell-based; conditions: Caco-2
# [2] = target: T1, Serine/threonine-protein kinase TBK1 (Homo sapiens, UniProt Q9UHD2)
# T1 sequence (Q9UHD2 whole entry): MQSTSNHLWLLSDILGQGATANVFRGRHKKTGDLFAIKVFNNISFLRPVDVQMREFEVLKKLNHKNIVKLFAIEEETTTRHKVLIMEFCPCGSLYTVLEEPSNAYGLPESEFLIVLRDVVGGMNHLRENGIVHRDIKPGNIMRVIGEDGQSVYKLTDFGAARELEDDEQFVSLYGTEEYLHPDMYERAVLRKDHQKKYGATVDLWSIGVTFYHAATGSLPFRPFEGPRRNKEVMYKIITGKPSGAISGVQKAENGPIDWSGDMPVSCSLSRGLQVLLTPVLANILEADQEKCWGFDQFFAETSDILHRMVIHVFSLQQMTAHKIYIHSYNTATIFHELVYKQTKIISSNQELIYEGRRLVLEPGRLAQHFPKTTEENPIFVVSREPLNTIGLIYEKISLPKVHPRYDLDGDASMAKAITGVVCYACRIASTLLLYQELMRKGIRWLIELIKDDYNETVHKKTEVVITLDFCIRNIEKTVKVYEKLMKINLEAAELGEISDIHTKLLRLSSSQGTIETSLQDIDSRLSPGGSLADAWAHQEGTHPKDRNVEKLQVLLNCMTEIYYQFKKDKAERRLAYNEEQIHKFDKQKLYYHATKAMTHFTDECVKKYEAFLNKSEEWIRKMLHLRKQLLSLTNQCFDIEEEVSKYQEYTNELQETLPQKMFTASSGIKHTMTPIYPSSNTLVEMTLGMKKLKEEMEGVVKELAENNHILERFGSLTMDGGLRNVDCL
# [3] = target: T2, Serine/threonine-protein kinase ULK1 (Homo sapiens, UniProt O75385); assay: Inhibition of wild-type human partial length ULK1 (M1 to T309 residues) expressed in mammalian expression system
# T2 sequence (O75385 whole entry): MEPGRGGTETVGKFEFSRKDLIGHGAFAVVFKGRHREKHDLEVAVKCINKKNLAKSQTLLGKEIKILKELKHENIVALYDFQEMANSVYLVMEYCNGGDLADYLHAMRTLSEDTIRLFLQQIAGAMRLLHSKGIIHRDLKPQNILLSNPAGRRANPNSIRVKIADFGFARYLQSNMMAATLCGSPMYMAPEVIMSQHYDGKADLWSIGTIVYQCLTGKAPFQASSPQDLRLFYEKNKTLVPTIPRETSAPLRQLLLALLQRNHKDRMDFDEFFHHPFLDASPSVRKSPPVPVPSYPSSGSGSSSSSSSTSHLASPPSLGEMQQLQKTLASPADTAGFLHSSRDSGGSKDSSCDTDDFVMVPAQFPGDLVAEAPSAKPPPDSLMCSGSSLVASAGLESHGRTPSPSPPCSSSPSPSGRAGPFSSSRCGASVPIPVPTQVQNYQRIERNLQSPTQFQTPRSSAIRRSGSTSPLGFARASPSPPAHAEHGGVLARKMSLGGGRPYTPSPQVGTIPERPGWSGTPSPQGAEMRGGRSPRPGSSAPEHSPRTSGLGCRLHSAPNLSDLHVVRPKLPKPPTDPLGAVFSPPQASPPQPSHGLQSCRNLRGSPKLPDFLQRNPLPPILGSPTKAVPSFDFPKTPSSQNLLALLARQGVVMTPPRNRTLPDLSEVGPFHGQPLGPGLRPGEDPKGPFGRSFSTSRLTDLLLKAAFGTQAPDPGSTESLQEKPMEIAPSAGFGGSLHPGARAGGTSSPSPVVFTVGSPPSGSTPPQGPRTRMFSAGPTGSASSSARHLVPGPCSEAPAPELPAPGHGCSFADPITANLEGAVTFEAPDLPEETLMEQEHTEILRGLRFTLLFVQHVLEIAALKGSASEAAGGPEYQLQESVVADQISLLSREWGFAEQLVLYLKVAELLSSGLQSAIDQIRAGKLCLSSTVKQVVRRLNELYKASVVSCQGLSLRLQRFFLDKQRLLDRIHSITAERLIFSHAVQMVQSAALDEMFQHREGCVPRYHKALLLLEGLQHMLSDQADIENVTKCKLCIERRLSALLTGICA
# ACHN = assay: Antiproliferative activity against human ACHN cells harboring CDKN2A mutation assessed as reduction in cell viability after 96 hrs by CellTiter-Glo luminescence assay; type: functional, cell-based
# CDK9/cyclin T1 = CDK9/cyclin T1 (Homo sapiens, UniProt P50750); assay: Inhibition of recombinant full length human His-tagged CDK9/CyclinT1 expressed in baculovirus expression system using biotin-labelled Ttds-YISPLKSPYKISEG peptide as substrate preincubated with enzyme for 15 mins followed by substrate addition and further incubated for 25 mins presence of 10 uM of ATP by TR-FRET assay
# [4] = target: T3, Receptor-type tyrosine-protein kinase FLT3 (Homo sapiens, UniProt P36888); assay: Inhibition of recombinant human N-terminal GST-tagged FLT3 (564 to end residues) expressed in sf21 cells using biotin labelled Ahx-GGEEEEYFELVKKKK peptide as substrate preincubated with enzyme for 15 mins followed by substrate addition and further incubated for 45 mins in presence of 10 uM of ATP by TR-FRET assay
# T3 sequence (P36888 whole entry): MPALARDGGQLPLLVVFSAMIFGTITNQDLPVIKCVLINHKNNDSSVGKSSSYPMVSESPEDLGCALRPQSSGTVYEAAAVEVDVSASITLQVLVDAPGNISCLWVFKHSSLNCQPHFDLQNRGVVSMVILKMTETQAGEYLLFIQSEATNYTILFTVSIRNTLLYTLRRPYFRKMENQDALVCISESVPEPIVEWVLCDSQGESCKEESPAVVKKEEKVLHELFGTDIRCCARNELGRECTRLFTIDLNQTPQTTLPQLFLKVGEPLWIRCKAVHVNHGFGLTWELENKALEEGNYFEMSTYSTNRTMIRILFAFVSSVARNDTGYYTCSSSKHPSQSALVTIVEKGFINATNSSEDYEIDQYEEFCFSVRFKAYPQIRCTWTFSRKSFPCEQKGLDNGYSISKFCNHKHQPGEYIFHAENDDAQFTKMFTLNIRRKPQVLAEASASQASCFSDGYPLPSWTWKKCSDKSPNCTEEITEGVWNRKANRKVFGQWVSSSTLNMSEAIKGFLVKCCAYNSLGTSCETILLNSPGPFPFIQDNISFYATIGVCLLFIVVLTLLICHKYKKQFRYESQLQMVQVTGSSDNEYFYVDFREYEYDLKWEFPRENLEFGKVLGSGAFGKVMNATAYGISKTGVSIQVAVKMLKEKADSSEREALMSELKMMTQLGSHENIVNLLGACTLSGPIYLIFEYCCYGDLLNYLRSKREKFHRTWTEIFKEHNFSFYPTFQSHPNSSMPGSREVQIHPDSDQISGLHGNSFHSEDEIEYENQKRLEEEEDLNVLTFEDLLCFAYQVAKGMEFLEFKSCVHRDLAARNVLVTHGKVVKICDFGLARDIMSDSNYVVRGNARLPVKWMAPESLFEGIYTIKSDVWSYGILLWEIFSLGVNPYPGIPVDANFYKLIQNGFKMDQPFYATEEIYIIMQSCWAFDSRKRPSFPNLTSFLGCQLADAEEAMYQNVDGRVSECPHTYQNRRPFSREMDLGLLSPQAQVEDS
# CDK9/cyclin T1, sequence (O60563 whole entry): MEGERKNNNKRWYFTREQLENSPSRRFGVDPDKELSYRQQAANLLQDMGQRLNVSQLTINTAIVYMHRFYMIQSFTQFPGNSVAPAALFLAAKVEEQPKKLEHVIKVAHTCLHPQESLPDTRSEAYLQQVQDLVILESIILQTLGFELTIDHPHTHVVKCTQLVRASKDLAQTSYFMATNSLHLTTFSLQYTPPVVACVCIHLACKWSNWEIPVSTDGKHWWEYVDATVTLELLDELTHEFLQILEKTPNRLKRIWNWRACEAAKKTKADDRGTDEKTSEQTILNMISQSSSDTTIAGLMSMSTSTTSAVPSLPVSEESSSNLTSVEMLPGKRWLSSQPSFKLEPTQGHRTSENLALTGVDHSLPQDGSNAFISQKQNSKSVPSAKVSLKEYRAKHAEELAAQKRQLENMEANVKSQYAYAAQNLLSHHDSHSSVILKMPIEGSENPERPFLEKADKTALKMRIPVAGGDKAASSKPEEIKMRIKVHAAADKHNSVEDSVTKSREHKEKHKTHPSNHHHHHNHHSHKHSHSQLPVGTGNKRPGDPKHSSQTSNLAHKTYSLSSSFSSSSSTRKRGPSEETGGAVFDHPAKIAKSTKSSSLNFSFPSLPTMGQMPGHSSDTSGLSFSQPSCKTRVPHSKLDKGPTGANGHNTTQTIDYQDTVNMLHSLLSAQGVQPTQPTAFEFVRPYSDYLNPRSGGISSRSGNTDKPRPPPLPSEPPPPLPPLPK
# CDK9/cyclin T1, sequence (P50750 whole entry): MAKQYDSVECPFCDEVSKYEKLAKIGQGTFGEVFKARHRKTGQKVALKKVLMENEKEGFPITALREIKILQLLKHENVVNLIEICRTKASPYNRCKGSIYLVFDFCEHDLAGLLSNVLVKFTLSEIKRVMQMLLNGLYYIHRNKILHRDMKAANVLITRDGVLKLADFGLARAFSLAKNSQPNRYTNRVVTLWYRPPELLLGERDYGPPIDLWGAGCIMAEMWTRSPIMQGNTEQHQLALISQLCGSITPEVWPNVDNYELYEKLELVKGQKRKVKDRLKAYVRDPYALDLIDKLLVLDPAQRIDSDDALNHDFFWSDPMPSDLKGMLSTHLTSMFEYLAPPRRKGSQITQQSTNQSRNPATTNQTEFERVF
Structure (SMILES),efflux ratio [1],pIC50 [2],pIC50 [3],pIC50 (ACHN),pIC50 (CDK9/cyclin T1),pIC50 [4]
C[C@H](c1ccnc(Nc2nc3ccc(-c4cnn(CC5CC5)c4)cc3[nH]2)c1)N1CCN(C(=O)CC(F)(F)F)CC1,7.5,9.00,8.05,5.28,< 4.70,7.74
CN(C)c1cc(-c2ccc3nc(Nc4cc(CN5CCN(C(=O)CC(F)(F)F)CC5)ccn4)[nH]c3c2)ncn1,–,8.05,< 5.00,5.01,4.84,6.94
C[C@H](c1ccnc(Nc2nc3ccc(-c4cc(OCC5CC5)ncn4)cc3[nH]2)c1)N1CCN(C(=O)CC(F)(F)F)CC1,–,8.70,6.38,5.41,4.79,7.89
O=C(CC(F)(F)F)N1CCN(Cc2ccnc(Nc3nc4ccc(-c5cnn(CC6CC6)c5)cc4[nH]3)c2)CC1,3.9,8.30,7.55,5.10,5.04,8.05
Cc1cc(-c2ccc3nc(Nc4cc([C@@H](C)N5CCN(C(=O)CC(F)(F)F)CC5)ccn4)[nH]c3c2)ncn1,–,8.70,6.01,5.70,5.67,8.00
CC(C)Oc1cncnc1-c1ccc2nc(Nc3cc([C@@H](C)N4CCN(C(=O)CC(F)(F)F)CC4)ccn3)[nH]c2c1,–,8.70,6.58,5.10,6.08,9.00
Cc1noc(-c2ccc3nc(Nc4cc(CN5CCN(C(=O)CC(F)(F)F)CC5)ccn4)[nH]c3c2)n1,3.4,6.89,–,5.01,6.34,7.43
Cc1noc(-c2ccc3nc(Nc4cc([C@@H](C)N5CCN(C(=O)CC(F)(F)F)CC5)ccn4)[nH]c3c2)n1,0.8,7.72,–,5.05,5.82,7.52
COCc1cc(-c2ccc3nc(Nc4cc([C@@H](C)N5CCN(C(=O)CC(F)(F)F)CC5)ccn4)[nH]c3c2)ncn1,–,–,6.43,4.87,5.29,8.30
CNc1cc(-c2ccc3nc(Nc4cc(CN5CCN(C(=O)CC(F)(F)F)CC5)ccn4)[nH]c3c2)ncn1,–,8.00,5.79,4.53,–,8.22
C[C@H](c1ccnc(Nc2nc3ccc(-c4cc(N(C)C)ncn4)cc3[nH]2)c1)N1CCN(C(=O)CC(F)(F)F)CC1 [BAY-985],17,8.70,5.10,5.14,–,6.91

# Reference: ChEMBL document CHEMBL4376867 (J Med Chem, 2020)
